Assay results published in patent US8247211B2, “Glycopeptide antibiotics” (American Cyanamid Company, priority 2001, dated 2012).
≈ marks a conversion by molar mass, not a printed value.

Experiments:
[1] = test system: Staphylococcus aureus-SMITH (GC 4543); experiment: Acute lethal infection in mice (ED50); type: in vivo; details: female CD-1 mice, intraperitoneal challenge, intravenous dose 30 min. after infection, 7 day survival ratios
Outline: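 Female CD-1 mice challenged intraperitoneally with a bacterial dose lethal to untreated controls within 24-48 h. Compound given intravenously in saline or 5% dextrose 30 min post-infection, five mice per dose; ED50 from 7-day survival pooled over 3 tests.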

[2] = Anatomic pathology (heart and kidney histopathology) in mice; type: in vivo, CD-1 mice; details: 20 mg/kg intravenously daily for 9 days, microscopic histopathology on day 10
Outline: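 Juvenile CD-1 mice (20 days old; 5 vehicle, 5 treated) received glycopeptide antibiotic 20 mg/kg i.v. daily for 9 days. Necropsied tissues formalin-fixed, paraffin-embedded, H&E stained and examined microscopically; findings graded slight to severe versus controls.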

Escherichia coli [3] = experiment: In vitro antibacterial evaluation: minimum inhibitory concentration (MIC), broth dilution method; type: cell-based
Outline: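 Following NCCLS approved standard M7-A2, compounds are serially diluted from 64 to 0.06 μg/mL in Muller-Hinton II […] and inoculated at 5×10^5 CFU/mL; the MIC is the minimum concentration at which growth is inhibited.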

Staphylococcus sp. = experiment: as above; type: cell-based; details: 18 hours at 35° C.
Outline: (§1)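 Susceptibility determined by NCCLS-recommended broth dilution (M7-A2), Muller-Hinton II […]. Concentration span 64-0.06 μg/mL, inoculum 5×10^5 CFU/mL. Isolates include strains resistant to methicillin, penicillin and/or vancomycin.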

Enterococcus sp. = experiment: as above; type: cell-based
Outline: as §1

Escherichia coli [4] = experiment: as above; type: cell-based; remark: listed apart in the source
Streptococcus sp. = experiment: as above; type: cell-based; details: 18 hours at 35° C.
Outline: as §1

[5] = Staphylococcus aureus (ATCC 29213)
[6] = Staphylococcus aureus (GC 1131)
[7] = Staphylococcus aureus (GC 3051)
[8] = Staphylococcus aureus (GC 3053)
[9] = Staphylococcus aureus (GC 4541)
[10] = Staphylococcus aureus (GC 4542)
[11] = Staphylococcus aureus (GC 4544)
[12] = Staphylococcus aureus (GC 4545)
[13] = Enterococcus faecalis (ATCC 29212)
[14] = Enterococcus faecalis (GC 4553)
[15] = Enterococcus faecalis (GC 4554)
[16] = Enterococcus faecalis (GC 6189)

CC(C)CC(=O)OC1C(OC2C(CO)OC(Oc3ccc(CC4NC(=O)C(C(C)c5ccccc5)NC(=O)CNC(=O)C(CO)NC(=O)C(CC5CNC(=N)N5C5OC(CO)C(O)C(O)C5O)NC(=O)C(CC5CNC(=N)N5)NC4=O)cc3)C(O)C2O)OC(CO)C(O)C1O (stereo not shown) [Example 277b]
median effective dose (ED50), Staphylococcus aureus-SMITH (GC 4543) [1]: >8 | Anatomical Pathology (Day 10), Heart [2]: 0 | Anatomical Pathology (Day 10), Kidney [2]: + | MIC Escherichia coli (GC 4559) (Escherichia coli [3]): >64 µg/mL | MIC Escherichia coli (GC 4560) (Escherichia coli [3]): 32 µg/mL (≈ 23.7 µM) | MIC Coagulase Negative Staphylococcus (GC 4547) (Staphylococcus sp.): >64 µg/mL | MIC Coagulase Negative Staphylococcus (GC 4547) (Staphylococcus sp.; broth dilution): >64 µg/mL | MIC Coagulase Negative Staphylococcus (GC 4548) (Staphylococcus sp.): >64 µg/mL | MIC Coagulase Negative Staphylococcus (GC 4548) (Staphylococcus sp.; broth dilution): >64 µg/mL | MIC Coagulase Negative Staphylococcus (GC 4549) (Staphylococcus sp.): >64 µg/mL | MIC Coagulase Negative Staphylococcus (GC 4549) (Staphylococcus sp.; broth dilution): >64 µg/mL | MIC Coagulase Negative Staphylococcus (GC 4551) (Staphylococcus sp.): >64 µg/mL | MIC Coagulase Negative Staphylococcus (GC 4551) (Staphylococcus sp.; broth dilution): >64 µg/mL | MIC Coagulase Negative Staphylococcus (GC 6257) (Staphylococcus sp.): >64 µg/mL | MIC Coagulase Negative Staphylococcus (GC 6257) (Staphylococcus sp.; broth dilution): >64 µg/mL | MIC Staphylococcus aureus (ATCC 29213) (Staphylococcus sp.; [5]): >64 µg/mL | MIC Staphylococcus aureus (ATCC 29213) (Staphylococcus sp.; Staphylococcus aureus (ATCC 29213), broth dilution): >64 µg/mL | MIC Staphylococcus aureus (GC 1131) (Staphylococcus sp.; [6]): >64 µg/mL | MIC Staphylococcus aureus (GC 1131) (Staphylococcus sp.; Staphylococcus aureus (GC 1131), broth dilution): >64 µg/mL | MIC Staphylococcus aureus (GC 3051) (Staphylococcus sp.; [7]): >64 µg/mL | MIC Staphylococcus aureus (GC 3051) (Staphylococcus sp.; Staphylococcus aureus (GC 3051), broth dilution): >64 µg/mL | MIC Staphylococcus aureus (GC 3053) (Staphylococcus sp.; [8]): >64 µg/mL | MIC Staphylococcus aureus (GC 3053) (Staphylococcus sp.; Staphylococcus aureus (GC 3053), broth dilution): >64 µg/mL | MIC Staphylococcus aureus (GC 4541) (Staphylococcus sp.; [9]): >64 µg/mL | MIC Staphylococcus aureus (GC 4541) (Staphylococcus sp.; Staphylococcus aureus (GC 4541), broth dilution): >64 µg/mL | MIC Staphylococcus aureus (GC 4542) (Staphylococcus sp.; [10]): >64 µg/mL | MIC Staphylococcus aureus (GC 4542) (Staphylococcus sp.; Staphylococcus aureus (GC 4542), broth dilution): >64 µg/mL | MIC Staphylococcus aureus (GC 4544) (Staphylococcus sp.; [11]): >64 µg/mL | MIC Staphylococcus aureus (GC 4544) (Staphylococcus sp.; Staphylococcus aureus (GC 4544), broth dilution): >64 µg/mL | MIC Staphylococcus aureus (GC 4545) (Staphylococcus sp.; [12]): >64 µg/mL | MIC Staphylococcus aureus (GC 4545) (Staphylococcus sp.; Staphylococcus aureus (GC 4545), broth dilution): >64 µg/mL | MIC Staphylococcus aureus-SMITH (GC 4543) (Staphylococcus sp.): >64 µg/mL | MIC Staphylococcus aureus-SMITH (GC 4543) (Staphylococcus sp.; broth dilution): >64 µg/mL | MIC Staphylococcus haemolyticus (GC 4546) (Staphylococcus sp.): >64 µg/mL | MIC Staphylococcus haemolyticus (GC 4546) (Staphylococcus sp.; broth dilution): >64 µg/mL | MIC Enterococcus avium (GC 4558) (Enterococcus sp.; Enterococcus avium (GC 4558)): >64 µg/mL | MIC Enterococcus faecalis (ATCC 29212) (Enterococcus sp.; [13]): >64 µg/mL | MIC Enterococcus faecalis (GC 4553) (Enterococcus sp.; [14]): >64 µg/mL | MIC Enterococcus faecalis (GC 4554) (Enterococcus sp.; [15]): >64 µg/mL | MIC Enterococcus faecalis (GC 6189) (Enterococcus sp.; [16]): >64 µg/mL | MIC Enterococcus faecium (GC 2243) (Enterococcus sp.; Enterococcus faecium (GC 2243)): >64 µg/mL | MIC Enterococcus faecium (GC 4556) (Enterococcus sp.; Enterococcus faecium (GC 4556)): >64 µg/mL | MIC Enterococcus faecium (GC 4557) (Enterococcus sp.; Enterococcus faecium (GC 4557)): >64 µg/mL | MIC Escherichia coli (ATCC 25922) (Escherichia coli [4]): >64 µg/mL

β-O-[(N-Methyl-2-methylpropylamino)carbonyl]-cyclo[glycyl-β-methylphenylalanyl-O-(4-O-hexopyranosylhexopyranosyl)tyrosyl-3-(2-iminoimidazolidin-4-yl)seryl-3-(3-hexopyranosyl-2-iminoimidazolidin-4-yl)serylseryl] [Example 255a]
MIC Escherichia coli (GC 4559) (Escherichia coli [3]): >0.5 µg/mL | MIC Escherichia coli (GC 4560) (Escherichia coli [3]): 0.5 µg/mL | MIC Streptococcus agalactiae (GC 4564) (Streptococcus sp.; Streptococcus agalactiae (GC 4564)): 64 µg/mL | MIC Streptococcus pneumoniae (GC 4565) (Streptococcus sp.; Streptococcus pneumoniae (GC 4565)): 32 µg/mL | MIC Streptococcus pyogenes (GC 4563) (Streptococcus sp.; Streptococcus pyogenes (GC 4563)): 32 µg/mL | MIC Streptococcus pyogenes (GC 4563) (Streptococcus sp.; broth dilution, strain GC 4563): 32 µg/mL | MIC Streptococcus agalactiae (GC 4564) (Streptococcus sp.; broth dilution, strain GC 4564): 64 µg/mL | MIC Streptococcus pneumoniae (GC 4565) (Streptococcus sp.; broth dilution, strain GC 4565): 32 µg/mL | MIC Coagulase Negative Staphylococcus (GC 4547) (Staphylococcus sp.): 64 µg/mL | MIC Coagulase Negative Staphylococcus (GC 4548) (Staphylococcus sp.): >64 µg/mL | MIC Coagulase Negative Staphylococcus (GC 4549) (Staphylococcus sp.): 64 µg/mL | MIC Coagulase Negative Staphylococcus (GC 4551) (Staphylococcus sp.): >64 µg/mL | MIC Coagulase Negative Staphylococcus (GC 6257) (Staphylococcus sp.): 64 µg/mL | MIC Staphylococcus aureus (ATCC 29213) (Staphylococcus sp.; [5]): >0.5 µg/mL | MIC Staphylococcus aureus (GC 1131) (Staphylococcus sp.; [6]): >0.5 µg/mL | MIC Staphylococcus aureus (GC 3051) (Staphylococcus sp.; [7]): 0.5 µg/mL | MIC Staphylococcus aureus (GC 3053) (Staphylococcus sp.; [8]): 0.5 µg/mL | MIC Staphylococcus aureus (GC 4541) (Staphylococcus sp.; [9]): >0.5 µg/mL | MIC Staphylococcus aureus (GC 4542) (Staphylococcus sp.; [10]): >0.5 µg/mL | MIC Staphylococcus aureus (GC 4544) (Staphylococcus sp.; [11]): >0.5 µg/mL | MIC Staphylococcus aureus (GC 4545) (Staphylococcus sp.; [12]): >0.5 µg/mL | MIC Staphylococcus aureus-SMITH (GC 4543) (Staphylococcus sp.): >0.5 µg/mL | MIC Staphylococcus haemolyticus (GC 4546) (Staphylococcus sp.): 64 µg/mL | MIC Staphylococcus aureus (ATCC 29213) (Staphylococcus sp.; broth dilution, strain ATCC 29213): >0.5 µg/mL | MIC Staphylococcus aureus (GC 1131) (Staphylococcus sp.; broth dilution, strain GC 1131): >0.5 µg/mL | MIC Staphylococcus aureus (GC 3051) (Staphylococcus sp.; broth dilution, strain GC 3051): 0.5 µg/mL | MIC Staphylococcus aureus (GC 3053) (Staphylococcus sp.; broth dilution, strain GC 3053): 0.5 µg/mL | MIC Staphylococcus aureus (GC 4541) (Staphylococcus sp.; broth dilution, strain GC 4541): >0.5 µg/mL | MIC Staphylococcus aureus (GC 4542) (Staphylococcus sp.; broth dilution, strain GC 4542): >0.5 µg/mL | MIC Staphylococcus aureus (GC 4544) (Staphylococcus sp.; broth dilution, strain GC 4544): >0.5 µg/mL | MIC Staphylococcus aureus (GC 4545) (Staphylococcus sp.; broth dilution, strain GC 4545): >0.5 µg/mL | MIC Enterococcus avium (GC 4558) (Enterococcus sp.; Enterococcus avium (GC 4558)): >0.5 µg/mL | MIC Enterococcus faecalis (ATCC 29212) (Enterococcus sp.; [13]): >0.5 µg/mL | MIC Enterococcus faecalis (GC 2242) (Enterococcus sp.; Enterococcus faecalis (GC 2242), 18 hours at 35° C.): >0.5 µg/mL | MIC Enterococcus faecalis (GC 2691) (Enterococcus sp.; Enterococcus faecalis (GC 2691), 18 hours at 35° C.): >0.5 µg/mL | MIC Enterococcus faecalis (GC 3059) (Enterococcus sp.; Enterococcus faecalis (GC 3059), 18 hours at 35° C.): >0.5 µg/mL | MIC Enterococcus faecalis (GC 4552) (Enterococcus sp.; Enterococcus faecalis (GC 4552), 18 hours at 35° C.): >0.5 µg/mL | MIC Enterococcus faecalis (GC 4553) (Enterococcus sp.; [14]): >0.5 µg/mL | MIC Enterococcus faecalis (GC 4554) (Enterococcus sp.; [15]): >0.5 µg/mL | MIC Enterococcus faecalis (GC 6189) (Enterococcus sp.; [16]): >0.5 µg/mL | MIC Enterococcus faecium (GC 2243) (Enterococcus sp.; Enterococcus faecium (GC 2243)): >64 µg/mL | MIC Enterococcus faecium (GC 4556) (Enterococcus sp.; Enterococcus faecium (GC 4556)): >64 µg/mL | MIC Enterococcus faecium (GC 4557) (Enterococcus sp.; Enterococcus faecium (GC 4557)): 32 µg/mL | MIC Enterococcus faecalis (ATCC 29212) (Enterococcus sp.; broth dilution, 18 hours at 35° C., strain ATCC 29212): >0.5 µg/mL | MIC Enterococcus faecalis (GC 2242) (Enterococcus sp.; broth dilution, 18 hours at 35° C., strain GC 2242): >0.5 µg/mL | MIC Enterococcus faecium (GC 2243) (Enterococcus sp.; broth dilution, 18 hours at 35° C., strain GC 2243): >64 µg/mL | MIC Enterococcus faecalis (GC 2691) (Enterococcus sp.; broth dilution, 18 hours at 35° C., strain GC 2691): >0.5 µg/mL | MIC Enterococcus faecalis (GC 3059) (Enterococcus sp.; broth dilution, 18 hours at 35° C., strain GC 3059): >0.5 µg/mL | MIC Enterococcus faecalis (GC 4552) (Enterococcus sp.; broth dilution, 18 hours at 35° C., strain GC 4552): >0.5 µg/mL | MIC Enterococcus faecalis (GC 4553) (Enterococcus sp.; broth dilution, 18 hours at 35° C., strain GC 4553): >0.5 µg/mL | MIC Enterococcus faecalis (GC 4554) (Enterococcus sp.; broth dilution, 18 hours at 35° C., strain GC 4554): >0.5 µg/mL | MIC Enterococcus faecium (GC 4556) (Enterococcus sp.; broth dilution, 18 hours at 35° C., strain GC 4556): >64 µg/mL | MIC Enterococcus faecium (GC 4557) (Enterococcus sp.; broth dilution, 18 hours at 35° C., strain GC 4557): 32 µg/mL | MIC Enterococcus avium (GC 4558) (Enterococcus sp.; broth dilution, 18 hours at 35° C., strain GC 4558): >0.5 µg/mL | MIC Enterococcus faecalis (GC 6189) (Enterococcus sp.; broth dilution, 18 hours at 35° C., strain GC 6189): >0.5 µg/mL | MIC Escherichia coli (ATCC 25922) (Escherichia coli [4]): >0.5 µg/mL
